Measurements taken from patent publication US20180153203A1, “(5R)-(ß-D-GLUCOPYRANOSYLOXY)-1,5-DIHYDRO-2H-PYRROL-2-ONE AS UMAMI MOLECULE” (priority 2015, published 2018).
Read-outs that look alike come from different tables or passages of the source.

Legend:
[1] = tested on: sensory panel of 5 to 8 trained persons; conditions: comparison value for MSG, no source or test given; cited from earlier work
[2] = tested on: sensory panel of 5 to 8 trained persons; test: Sensory panel tasting of umami intensity in water; assay type: in vivo, human; conditions: for Intense umami / No umami / Umami: water, count of tasters on 3-point umami scale; for threshold (umami) / threshold (umami), preferably: in water
Procedure: (§1) The sensory tests were performed in a sensory panel room at 20-25° C. The sensory panel consisted of 5 to 8 trained persons. The technical tasting was measured versus a control sample. Tasters were asked to judge the different products according to umami intensity on a 3-point scale (no umami, umami and intense umami). Additionally the tasters were asked to objectively describe the prototype with comments.
The stereoisomers have been tested to umami intensity as described in example 7.

[3] = tested on: sensory panel of 5 to 8 trained persons; test: Sensory panel tasting in 0.2% sodium chloride and 0.04% sugar; assay type: in vivo, human; conditions: for Intense umami / No umami / Umami: 0.2% sodium chloride and 0.04% sugar, count of tasters
Procedure: as §1

[4] = tested on: sensory panel of 5 to 8 trained persons; test: Sensory panel tasting in 0.2% sodium chloride and 0.04% sugar and 0.08% MSG; assay type: in vivo, human; conditions: 0.2% sodium chloride, count of tasters
Procedure: as §1

[5] = tested on: sensory panel of 5 to 8 trained persons; test: Sensory panel tasting in 0.2% sodium chloride and 0.04% sugar and 0.015% IMP + GMP; assay type: in vivo, human; conditions: 0.2% sodium chloride, count of tasters
Procedure: as §1

[6] = tested on: sensory panel; test: Sensory panel tasting of tomato soups; assay type: in vivo, human; conditions: tomato soup
Procedure: (5R)-(β-D-glucopyranosyloxy)-1,5-dihydro-2H-pyrrol-2-one was added at 500 mg/L (500 ppm) to the soups.

## N[C@@H](CCC(=O)O)C(=O)[O-].[Na+] [Monosodium glutamat]
[1]
  threshold (umami): 1500 µmol/L

## O=C1C=C[C@@H](O[C@H]2O[C@H](CO)[C@@H](O)[C@H](O)[C@H]2O)N1 [alpha-R, (5R)-(α-D-glucopyranosyloxy)-1,5-dihydro-2H-pyrrol-2-one]
[2]; C 200 mg/l
  Intense umami: 0
  No umami: 5
  Umami: 0
[2]; C 400 mg/l
  Intense umami: 0
  No umami: 5
  Umami: 0
[2]; C 800 mg/l
  Intense umami: 0
  No umami: 5
  Umami: 0

## O=C1C=C[C@H](O[C@H]2O[C@H](CO)[C@@H](O)[C@H](O)[C@H]2O)N1 [alpha-S, (5S)-(α-D-glucopyranosyloxy)-1,5-dihydro-2H-pyrrol-2-one]
[2]; C 100 mg/l
  Intense umami: 0
  No umami: 5
  Umami: 0
[2]; C 250 mg/l
  Intense umami: 0
  No umami: 4
  Umami: 1
[2]; C 500 mg/l
  Intense umami: 0
  No umami: 5
  Umami: 0

## O=C1C=C[C@H](O[C@@H]2O[C@H](CO)[C@@H](O)[C@H](O)[C@H]2O)N1 [beta-S, (5S)-(β-D-glucopyranosyloxy)-1,5-dihydro-2H-pyrrol-2-one]
[2]; C 100 mg/l
  Intense umami: 0
  No umami: 5
  Umami: 0
[2]; C 200 mg/l
  Intense umami: 0
  No umami: 5
  Umami: 0
[2]; C 500 mg/l
  Intense umami: 0
  No umami: 4
  Umami: 1

## (5R)-(β-D-glucopyranosyloxy)-1,5-dihydro-2H-pyrrol-2-one
[2]; corresponding to 250 mg/l
  threshold (umami): 957 µmol/L
[2]; corresponding to 500 mg/l
  threshold (umami), preferably: 1914 µmol/L
[2]; from Table 1
  threshold (umami): 250 mg/L
[2]; from Table 1, 'preferably'
  threshold (umami), preferably: 500 mg/L
[2]; C 100 mg/l
  Intense umami: 0
  No umami: 5
  Umami: 3
[2]; C 250 mg/l
  Intense umami: 1
  No umami: 3
  Umami: 4
[2]; C 500 mg/l
  Intense umami: 1
  No umami: 1
  Umami: 6
[3]; C 200 mg/l
  Intense umami: 0
  No umami: 3
  Umami: 4
[3]; C 500 mg/l
  Intense umami: 2
  No umami: 2
  Umami: 3
[3]; conclusion from Table 2, table 3 and table 4 (salt/sugar base, with MSG, with IMP + GMP)
  umami enhancing property: shows the umami enhancing property
[4]; C 200 mg/l
  Intense umami: 5
  No umami: 0
  Umami: 1
[4]; C 500 mg/l
  Intense umami: 3
  No umami: 0
  Umami: 3
[5]; C 200 mg/l
  Intense umami: 0
  No umami: 4
  Umami: 3
[5]; C 500 mg/l
  Intense umami: 0
  No umami: 3
  Umami: 4
[6]; 500 mg/L (500 ppm)
  tomato soups with and without the compound, perceived difference: perceived as significantly different
[6]; 500 ppm
  savory, umami taste of tomato soups: increased significantly
